In patent US5420276A, “Analogs of oxetanyl purines and pyrimidines” (Abbott Laboratories, priority 1993, dated 1995):
Values after ≈ are worked out from the molar mass of the structure shown. Read-outs that look alike come from different tables or passages of the source.

What was measured:
[1] = MTT test compound cytotoxicity in human foreskin fibroblasts; assay type: cell-based; settings: hff cells, read-out: MTT assay (Percent of control)
Protocol: (§1) For the plaque reduction assay, sixth to twelfth passage human foreskin fibroblasts were seeded in wells of 12-well tissue culture plates and incubated at 37° C. in a humidified atmosphere containing 2% CO2 in air. Subconfluent HFF were rinsed with MEM and exposed to 0.5 ml/well of a suspension of VZV diluted in MEM+2% FBS for 2 hours at 37° C. Following the virus adsorption period, the inocula were removed and the infected cell layers were rinsed with MEM. Triplicate VZV-infected cell culture wells were treated with 1.0 ml of each concentration of test compound (in MEM+2% FBS). Six untreated virus-infected cell cultures and triplicate untreated uninfected cell cultures were fed with 1.0 ml of MEM+2% FBS to serve as controls. Wells containing uninfected HFF were treated with each concentration of test compound to monitor the test compound cytotoxicity. The 12-well plates were incubated at 37° C. in the CO2 incubator. At 48 hours post-virus infection (p.i.), fluids in all plate wells were replaced with fresh test compound and/or culture medium.
The test compound cytotoxicity control cultures were examined microscopically for gross morphologic changes, then treated with MTT and 30% SDS. The blue color of the MTT formazan was measured spectrophotometrically at 570 nm. Test compound cytotoxicity was determined by comparing the absorbance (O.D.) of each test compound control with the mean O.D. of the cell control cultures and expressed as percent of control.

[2] = tested on: Herpes simplex type 2 (HSV-2) strain MS; assay: CPE-inhibition assay, herpes simplex type 2 strain MS in Vero cells; assay type: cell-based, herpes simplex virus type 2
Protocol: (§2) The challenge viruses were propagated and assayed in cells that were pregrown as monolayer cultures in plastic tissue culture flasks and 96-well plates, using cell culture media appropriate for the host cell cultures. The following viruses and host cell cultures were employed:
(§3) green monkey kidney (Vero)
(§4) On the day of use, a weighed sample of each compound to be evaluated was dissolved and diluted in serial 10^0.5 dilutions in the culture medium appropriate for each virus-host cell system.
(§5) Mammalian cells were pregrown as monolayers in wells of COSTAR 96-well tissue culture plates using suitable cell culture media. Stock viruses were pretitered according to the method of Reed and Muench (Amer. J. Hyg. 27:493-497, 1938) and diluted in cell culture medium to yield 32 CCID50 (cell culture infectious dose, 50%) units per 0.1 ml. Antiviral assays were designed to test seven concentrations of each compound, from cytotoxic to noncytotoxic levels, in triplicate against each of the challenge viruses in microtiter plate wells containing suitable cell monolayers. To each of the replicate cell cultures were added 0.1 ml of the test drug solution and 0.1 ml of virus suspension. Cell controls containing medium alone, virus controls containing medium and virus, and drug cytotoxicity controls containing medium and each drug concentration were run simultaneously with the test samples assayed in each experiment. […] The cell monolayers were examined microscopically for virus-induced CPE and for drug cytotoxicity.
(§6) Antiviral activity was determined by calculating the degree of inhibition of virus-induced CPE in drug-treated, virus-infected cell cultures by means of a virus rating (VR). The VR is a standard weighted measurement of antiviral activity taking into account both the degree of CPE inhibition and drug cytotoxicity, and is determined by a modification of the method of Ehrlich et al. (Ann. N.Y. Acad. Sci. 130: 5-16, 1965) as described below. CPE was graded for each individual culture in each microtiter plate well according to the following scale:
(§7) 4=100% of the cells affected by virus;
(§8) 3=75% of the cells affected by virus;
(§9) 2=50% of the cells affected by virus;
(§10) 1=25% of the cells affected by virus;
(§11) 0=No CPE; normal cell monolayer.
(§12) The VR was calculated as 0.1 of the sum of the numerical differences between the recorded CPE grade of each test well and that of the corresponding virus control in the culture plate. Numerical differences between the scores of test wells containing a drug concentration which was partially cytotoxic (p) and their corresponding virus controls were halved.
(§13) The minimum inhibitory drug concentration which reduced the cytopathogenic effect (CPE) by 50% (MIC50) was calculated by using a regression analysis program for semilog curve fitting. A therapeutic index (TI) for each active compound for each susceptible virus was determined by dividing the minimum cytotoxic concentration of the test compound by the MIC50.

[3] = Drug cytotoxicity in Vero cells (microscopic, CPE-inhibition assay); assay type: cell-based; settings: african green monkey, minimum drug concentration causing any cytotoxicity, read-out: MTC
Protocol: as §5, §6, §13

[4] = tested on: Herpes simplex type 1 (HSV-1) strain E-377; assay: CPE-inhibition assay, herpes simplex type 1 strain E-377 in Vero cells; assay type: cell-based, herpes simplex virus type 1
Protocol: as §2, §3, §4, §5, §6, §7, §8, §9, §10, §11, §12, §13

[5] = tested on: Varicella-Zoster Virus (VZV) clinical isolate DM625; assay: VZV plaque reduction assay; assay type: cell-based; settings: Human alphaherpesvirus 3, 144 h, VZV in HFF; for EC50: minimum concentration required to inhibit plaque formation by 50%, read-out: MIC50
Protocol: The compounds of the invention were evaluated for selective activity against varicella zoster virus (VCV) utilizing a plaque reduction assay procedure. The challenge virus was a clinical isolate designated DM625, obtained from Dr. Richard Whitley of the University of Alabama Hospitals, Birmingham, Ala. The virus had been passaged and titrated in cultures of human foreskin fibroblasts (HFF).
as §1
Six days p.i., the VZV plaques were counted (unstained, low magnification).The effect of each concentration of test compound on plaque formation was determined by comparing the mean number of plaques in the replicate test compound-treated cultures with the mean plaque counts of the untreated virus control cultures.
The MIC50 value is the minimum concentration of test Compound required to inhibit plaque formation by 50%.

in vitro = assay type: cell-based, African green monkey; settings: monkey, vero cells
Protocol: (§14) Vero cell monolayers were harvested by trypsinization. The number of viable cells per ml. was determined by staining an aliquot with trypan blue and counting in a hemocytometer. Cell densities were adjusted in growth medium to contain 4×10^5 cells/mi. 96-well sterile tissue culture plates were seeded with 100 μl/well of the adjusted cell suspensions, i.e., 4×10^4 cells/well. Seeded plates were incubated overnight at 37° C. with CO2.
(§15) After overnight incubation, monolayers were approximately confluent. The growth medium was removed and the monolayers in each cell were infected with 100 μl of virus diluted in maintenance medium to produce approximately 90% cytopathogenic effect (CPE) after 2 to 3 days incubation. The virus was allowed to adsorb for 1 hour at 37° C. with 4 to 6% CO2. Controls for cell growth were overlayed with virus-free maintenance medium. The maintenance medium containing residual virus was removed.
(§16) The test compounds were dissolved and/or diluted in maintenance medium to the concentration desired for testing and were added to the wells of the plate. Aliquots (100 μl ) of each concentration were added to wells in replicate (duplicate or triplicate). Controls for virus activity were overlayed with drug-free maintenance medium. Replicate wells containing only maintenance medium served as controls for background absorbance levels.
After incubation, the medium was removed from all the wells. 100 μl of neutral red solution was added to each well and the plate was incubated at 37° C. without CO2 for 2 hours. After the 2 hour incubation, the excess neutral red solution was removed. The plates were washed with 100 μl/well of PBS, pH 7.2 and then the PBS was removed.
The neutral red stain taken up by the viable cells was extracted by adding 100 μl/well of acidified methanol, pH 1.0. (The acidified methanol fixed the cells to the well). The plate was allowed to stand at room temperature for at least 15 minutes to allow for maximum extraction. The amount of neutral red stain extracted into the methanol was quantified by determining the absorbance at a wavelength of 540 nm. […]

[6] = tested on: Herpes Simplex Virus Type 1; assay: Neutral red dye uptake assay for antiviral activity, HSV-1 in Vero cells; assay type: cell-based; settings: Human alphaherpesvirus 1, HSV-1, Vero, concentration at which 50% CPE would be observed, read-out: MIC50
Protocol: as §14, §15, §16
After incubation, the medium was removed from all the wells. 100 μl of neutral red solution was added to each well and the plate was incubated at 37° C. without CO2 for 2 hours. After the 2 hour incubation, the excess neutral red solution was removed. […]
The neutral red stain taken up by the viable cells was extracted by adding 100 μl/well of acidified methanol, pH 1.0. […] The amount of neutral red stain extracted into the methanol was quantified by determining the absorbance at a wavelength of 540 nm.
The percent CPE in virus controls was determined by the following formula: [formula]
The percent CPE in cells infected with virus and treated with the test compound was determined by the following formula: [formula] […]

HSV-1 (E-377) = assay: CPE inhibition assay (MTT), HSV-1 (E-377) in Vero cells; assay type: cell-based, herpes simplex virus type 1; settings: Human alphaherpesvirus 1, inhibited CPE by 50%
Protocol: Vero cells were pregrown as monolayers in wells of COSTAR 96-well tissue culture plates using suitable cell culture media. Stock viruses were pretitered according to the method of Reed and Muench (Amer. J. Hyg. 27 493 (1938)) and diluted in cell culture medium to yield 32 CCID50 (cell culture infectious dose, 50%) units per 0.1 mL. Antiviral assays were designed to test six concentrations of each compound, from cytotoxic to noncytotoxic levels, in triplicate against each of the challenge viruses in microtiter plate wells containing cell monolayers. To each of the replicate cell cultures were added 0.1 mL of the test-compound solution and 0.1 mL of virus suspension. Two compounds were evaluated per plate. The following controls were included:
(1) Cell controls containing cells+medium;
(2) Untreated, virus-infected cell controls;
(3) Test-compound cytotoxicity controls containing uninfected, test-compound treated cells;
(4) Test-compound color controls-test-compound+medium (no cells); and
(5) Reagent (experiment medium) controls-medium only (no cells).
The covered plates were incubated at 37° C. in a humidified atmosphere containing 2% CO2. When cytopathogenic effect (CPE) in untreated virus control wells reached 100%, 20 μL of 3-(4,5-dimethyl-thiazol-2-yl)-2,5-diphenyl tetrazolium bromide (MTT) (dissolved in PBS at 5 mg/mL) was pipetted into each of the plate wells. The plates were incubated at 37° C. for six hours; then 40 μL of 30% SDS (in 0.02N HCl) was added to each well. After overnight incubation at 37° C., the blue color or the MTT formazan was measured spectrophotometrically at 570 nm. The optical density (OD) value of each culture is a function of the amount of formazan produced which is proportional to the number of viable cells. A computer program was utilized to calculate the percent (CPE) reciprocal of % CPE reduction) of the virus-infected wells and % cell viability of the uninfected test-compound control wells.
The IC50 value is the minimum test-compound concentration (μg/mL) that inhibited CPE by 50% calculated by using a regression analysis program for semilog curve fitting. The TC25 value is the minimum test-compound concentration (μg/mL) that reduced cell viability by 25%.

Cc1cn([C@@H]2O[C@H](CO)[C@H]2CO)c(=O)[nH]c1=O [Example 21, 1-([2'R, 3'R, 4'S]-3',4'-Bis(hydroxymethyl)-2'-oxetanyl)5-methyluracil]
viability at 0.1 µM [1]: 93%
viability at 0.32 µM [1]: 84%
viability at 1 µM [1]: 87%
viability at 3.2 µM [1]: 87%
VR (Virus Rating) ([2]; HSV-2 (MS)): 2.9
IC50 ([2]; Human alphaherpesvirus 2, HSV-2 (MS), minimum drug concentration that inhibited the CPE by 50%, read-out: ID50 (the source's name)): 44.3 µg/mL (≈ 183 µM)
MCC ([3]; HSV-1 (E-377)): 320 µg/mL
MCC ([3]; HSV-2 (MS)): > 320 µg/mL
VR (Virus Rating) ([4]; HSV-1 (E-377)): 5.9
IC50 ([4]; Human alphaherpesvirus 1, HSV-1 (E-377), minimum drug concentration that inhibited the CPE by 50%, read-out: ID50 (the source's name)): 0.2 µg/mL (≈ 0.826 µM)
inhibition at 0.032 µM [5]: 16%
inhibition at 0.1 µM [5]: 55%
inhibition at 0.32 µM [5]: 97%
inhibition at 1 µM [5]: 100%
inhibition at 3.2 µM [5]: 100%
EC50 [5]: 0.09 µg/mL (≈ 0.372 µM)

CCc1cn([C@@H]2O[C@H](CO)[C@H]2CO)c(=O)[nH]c1=O [Example 48, 1-([2'R, 3'R, 4'S]-3',4'-Bis(hydroxymethyl)-2'-oxetanyl)-5-ethyluracil]
CC50 (in vitro): 350 µg/mL (≈ 1370 µM)
EC50 [6]: 0.06 µg/mL (≈ 0.234 µM)

O=c1[nH]c(=O)n([C@@H]2O[C@H](CO)[C@H]2CO)cc1C=CCl [Example 50, 1-([2'R, 3'R, 4'S]-3',4'-Bis(hydroxymethyl)-2'-oxetanyl)-5-(2-chloro-1-vinyl)uracil]
viability at 0.1 µM [1]: 100%
viability at 0.32 µM [1]: 100%
viability at 1 µM [1]: 100%
inhibition at 0.0032 µM ([5]; 0.0032 μM): 7%
inhibition at 0.01 µM ([5]; 0.01 μM): 45%
inhibition at 0.032 µM [5]: 90%
inhibition at 0.1 µM [5]: 99%
inhibition at 0.32 µM [5]: 98%
inhibition at 1 µM [5]: 99%
EC50 [5]: 0.004 µg/mL (≈ 0.0139 µM)
IC50 (HSV-1 (E-377)): 0.74 µg/mL (≈ 2.56 µM)

CC#Cc1cn([C@@H]2O[C@H](CO)[C@H]2CO)c(=O)[nH]c1=O [Example 68, 1-([2'R, 3'R, 4'S]-3',4'-Bis(hydroxymethyl)-2'-oxetanyl)-5-propynyluracil]
viability at 0.032 µM ([1]; 0.032 μM): 100%
viability at 0.1 µM [1]: 100%
viability at 0.32 µM [1]: 100%
viability at 1 µM [1]: 98%
viability at 3.2 µM [1]: 100%
inhibition at 0.032 µM [5]: 3%
inhibition at 0.1 µM [5]: 38%
inhibition at 0.32 µM [5]: 92%
inhibition at 1 µM [5]: 99%
inhibition at 3.2 µM [5]: 100%
EC50 [5]: 0.045 µg/mL (≈ 0.169 µM)
